Reference: ChEMBL document CHEMBL1132095, “6-arylamino-5,8-quinolinediones and 7-arylamino-5,8-isoquinolinediones as inhibitors of endothelium-dependent vasorelaxation” (Bioorg Med Chem Lett, 1999)

Columns and labels:
[1] = species on record: Rattus norvegicus; test: Percent of maximal acetylcholine (ACh)-induced vasorelaxation of the rat aorta; format: functional
[2] = species on record: Rattus norvegicus; test: Inhibitory activity on acetylcholine-induced vasorelaxation of phenylephrine-precontracted rat aorta with intact endothelium; format: functional, organism-based

| SMILES | Emax [1] [%] | EC50 [2] [nM] |
| --- | --- | --- |
| O=C1C(Nc2ccc(F)c(F)c2F)=CC(=O)c2ncccc21 | 72 | 937 |
| O=C1C=C(Nc2ccccc2)C(=O)c2cnccc21 | 93 | 439 |
| O=C1C=C(Nc2ccc(F)cc2)C(=O)c2ccccc21 | 98 | 362 |
| O=C1C=C(Nc2ccc(F)c(F)c2)C(=O)c2cnccc21 | 81 | 640 |
| O=C1C(Nc2ccccc2)=CC(=O)c2ncccc21 | 77 | 335 |
| O=C1C=CC(=O)c2ncccc21 | 80 | 519 |
| O=C1C(Nc2cccc(F)c2)=CC(=O)c2ncccc21 | 85 | 805 |
| O=C1C=C(Nc2cc(F)cc(F)c2)C(=O)c2cnccc21 | 94 | 290 |
| O=C1C(Nc2ccc(C(F)(F)F)cc2)=CC(=O)c2ncccc21 | 91 | 607 |
| O=C1C=C(Nc2ccc(F)cc2F)C(=O)c2cnccc21 | 96 | 430 |
| O=C1C(Nc2ccc(OC(F)(F)F)cc2)=CC(=O)c2ncccc21 | 88 | 603 |
| O=C1C=CC(=O)c2ccccc21 [NAPHTHOQUINONE] | 98 | 127 |
| O=C1C=C(Nc2ccc(F)c(F)c2F)C(=O)c2ccccc21 | 97 | 330 |
| O=C1C=C(Nc2ccc(F)c(F)c2F)C(=O)c2cnccc21 | 87 | 1130 |
| O=C1C=C(Nc2cccc(F)c2)C(=O)c2cnccc21 | 89 | 562 |
| O=C1C=C(Nc2ccc(Cl)cc2)C(=O)c2cnccc21 | 96 | 190 |
| O=C1C(Nc2ccc(F)cc2)=CC(=O)c2ncccc21 | 79 | 541 |
| O=C1C(Nc2cc(F)cc(F)c2)=CC(=O)c2ncccc21 | 91 | 449 |
| O=C1C(Nc2ccc(Cl)cc2)=CC(=O)c2ncccc21 | 86 | 178 |
| O=C1C(Nc2ccc(I)cc2)=CC(=O)c2ncccc21 | 89 | 214 |
| O=C1C(Nc2ccc(Br)cc2)=CC(=O)c2ncccc21 | 88 | 302 |
| O=C1C=C(Nc2ccccc2)C(=O)c2ccccc21 | 98 | 239 |
| N=C(NCCC[C@H](N)C(=O)O)N[N+](=O)[O-] [NITROARGININE] | 69 | 1100 |
| O=C1C(Nc2ccc(F)cc2F)=CC(=O)c2ncccc21 | 94 | 288 |
| O=C1C=C(Nc2ccc(F)cc2)C(=O)c2cnccc21 | 72 | 1230 |
| O=C1C(Nc2ccc(F)c(F)c2)=CC(=O)c2ncccc21 | 92 | 251 |
| O=C1C=C(Nc2ccc(Cl)cc2)C(=O)c2ccccc21 | 98 | 220 |
